# Experimental data published in US20200024278A1, “COMPOSITION COMPRISING ANTIBIOTIC COMPOUND AND AN HETEROCYCLIC COMPOUND AND THEIR USE IN PREVENTING OR TREATING BACTERIAL INFECTIONS” (MUTABILIS, priority 2016, published 2020).
# Legend:
# Experiment in all cases: MIC, broth microdilution (CLSI), substance alone or ATB combined with compound at 4 or 8 μg/mL
# ABA UFR154 = assay type: cell-based, A. baumannii; conditions: substance alone
# Procedure, shortened: (§1)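 Each strain received 5·10^5 CFU/mL of log-phase cells in ca-MHB over DMSO-spotted compound or compound-antibiotic combinations. After 16-20 h at 35° C, growth was scored visually.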
# ABA UFR152 = assay type: cell-based, A. baumannii; conditions: substance alone
# Procedure, shortened: as §1
# ECL P99 = assay type: cell-based, E. cloacae; conditions: ECL P99; for MIC ATB combined with Example: Example @8 μg/ml
# Procedure, shortened: as §1
# PAE UFR48 = assay type: cell-based, P. aeruginosa; conditions: PAE UFR48; for MIC ATB combined with Example: Example @8 μg/ml; for MIC ATB combined with Example compound: compound @8 μg/ml
# Procedure, shortened: as §1
# PAE 105250 = assay type: cell-based, P. aeruginosa; conditions: PAE 105250; for MIC ATB combined with Example: Example @8 μg/ml; for MIC ATB combined with Example compound: compound @8 μg/ml
# Procedure, shortened: as §1
# PAE UFR90 = assay type: cell-based, P. aeruginosa; conditions: PAE UFR90; for MIC ATB combined with Example: Example @8 μg/ml; for MIC ATB combined with Example compound: compound @8 μg/ml
# Procedure, shortened: as §1
# ECO UFR39 = assay type: cell-based, E. coli; conditions: ECO UFR39; for MIC ATB combined with Example: Example @8 μg/ml; for MIC ATB combined with Example compound: compound @8 μg/ml
# Procedure, shortened: as §1
# ECO 190317 = assay type: cell-based, E. coli; conditions: ECO 190317; for MIC ATB combined with Example: Example @8 μg/ml
# Procedure, shortened: as §1
# SAU 29213 = assay type: cell-based, S. aureus; conditions: for MIC ATB combined with Example / MIC ATB combined with Example compound: SAU 29213; for MIC ATB combined with Example: Example @8 μg/ml; for MIC ATB combined with Example compound: compound @8 μg/ml
# Procedure, shortened: as §1
# SPN 49619 = assay type: cell-based, S. pneumoniae; conditions: SPN 49619; for MIC ATB combined with Example: Example @8 μg/ml; for MIC ATB combined with Example compound: compound @8 μg/ml
# Procedure, shortened: as §1
# KPN BAA-1898 = assay type: cell-based, K. pneumoniae; conditions: KPN BAA-1898; for MIC ATB combined with Example: Example @8 μg/ml
# Procedure, shortened: as §1
# KPN UFR42 = assay type: cell-based, K. pneumoniae; conditions: KPN UFR42; for MIC ATB combined with Example: Example @8 μg/ml; for MIC ATB combined with Example compound: compound @8 μg/ml
# Procedure, shortened: as §1
# KPN 6299 = assay type: cell-based, K. pneumoniae; conditions: for MIC ATB combined with Example: Example @8 μg/ml
# Procedure, shortened: as §1
compound,measurement,setting,value
"O=C1N2CC(n3ccnn3)=CC(C2)N1OS(=O)(=O)[O-].[Na+] (stereo not drawn) [Example 12, sodium [7-oxo-3-(triazol-1-yl)-1,6-diazabicyclo[3.2.1]oct-3-en-6-yl] sulfate]",MIC,ABA UFR154,>32 µg/mL
same,MIC,ABA UFR152,>32 µg/mL
same,MIC ATB combined with Example,ECL P99; ATB ATM,<0.031 µg/mL
same,MIC ATB combined with Example,ECL P99; ATB FEP,<0.031 µg/mL
same,MIC ATB combined with Example,ECL P99; ATB FOS,<0.125 µg/mL
same,MIC ATB combined with Example,ECL P99; ATB MEM,<0.031 µg/mL
same,MIC ATB combined with Example,ECL P99; ATB PIP,<0.031 µg/mL
same,MIC ATB combined with Example compound,"ECL P99; MIC of CIP, compound @8 μg/ml",<0.031 µg/mL
same,MIC,ECL P99; substance alone,1 µg/mL
same,MIC ATB combined with Example,PAE UFR48; ATB ATM,8 µg/mL
same,MIC ATB combined with Example,PAE UFR48; ATB FEP,16 µg/mL
same,MIC ATB combined with Example,PAE UFR48; ATB FOS,16 µg/mL
same,MIC ATB combined with Example,PAE UFR48; ATB MEM,0.5 µg/mL
same,MIC ATB combined with Example,PAE UFR48; ATB PIP,16 µg/mL
same,MIC ATB combined with Example compound,PAE UFR48; MIC of CIP,4 µg/mL
same,MIC ATB combined with Example compound,PAE UFR48; MIC of CPO,>32 µg/mL
same,MIC,PAE UFR48; substance alone,>32 µg/mL
same,MIC ATB combined with Example,PAE 105250; ATB ATM,8 µg/mL
same,MIC ATB combined with Example,PAE 105250; ATB FEP,2 µg/mL
same,MIC ATB combined with Example,PAE 105250; ATB FOS,>128 µg/mL
same,MIC ATB combined with Example,PAE 105250; ATB MEM,1 µg/mL
same,MIC ATB combined with Example,PAE 105250; ATB PIP,32 µg/mL
same,MIC ATB combined with Example compound,PAE 105250; MIC of CIP,0.125 µg/mL
same,MIC ATB combined with Example compound,PAE 105250; MIC of CPO,8 µg/mL
same,MIC,PAE 105250; substance alone,>32 µg/mL
same,MIC ATB combined with Example,PAE UFR90; ATB ATM,16 µg/mL
same,MIC ATB combined with Example,PAE UFR90; ATB FEP,4 µg/mL
same,MIC ATB combined with Example,PAE UFR90; ATB FOS,8 µg/mL
same,MIC ATB combined with Example,PAE UFR90; ATB MEM,1 µg/mL
same,MIC ATB combined with Example,PAE UFR90; ATB PIP,>32 µg/mL
same,MIC ATB combined with Example compound,PAE UFR90; MIC of CIP,1 µg/mL
same,MIC ATB combined with Example compound,PAE UFR90; MIC of CPO,8 µg/mL
same,MIC,PAE UFR90; substance alone,>32 µg/mL
same,MIC ATB combined with Example,ECO UFR39; ATB ATM,<0.031 µg/mL
same,MIC ATB combined with Example,ECO UFR39; ATB FEP,<0.031 µg/mL
same,MIC ATB combined with Example,ECO UFR39; ATB FOS,<0.125 µg/mL
same,MIC ATB combined with Example,ECO UFR39; ATB MEM,<0.031 µg/mL
same,MIC ATB combined with Example,ECO UFR39; ATB PIP,<0.031 µg/mL
same,MIC ATB combined with Example compound,ECO UFR39; MIC of CIP,<0.031 µg/mL
same,MIC ATB combined with Example compound,ECO UFR39; MIC of CPO,<0.031 µg/mL
same,MIC,ECO UFR39; substance alone,1 µg/mL
same,MIC ATB combined with Example,ECO 190317; ATB ATM,<0.031 µg/mL
same,MIC ATB combined with Example,ECO 190317; ATB FEP,<0.031 µg/mL
same,MIC ATB combined with Example,ECO 190317; ATB FOS,<0.125 µg/mL
same,MIC ATB combined with Example,ECO 190317; ATB MEM,<0.031 µg/mL
same,MIC ATB combined with Example,ECO 190317; ATB PIP,<0.031 µg/mL
same,MIC ATB combined with Example compound,"ECO 190317; MIC of CIP, compound @8 μg/ml",<0.031 µg/mL
same,MIC,ECO 190317; substance alone,1 µg/mL
same,MIC ATB combined with Example,SAU 29213; ATB ATM,<0.031 µg/mL
same,MIC ATB combined with Example,SAU 29213; ATB FEP,<0.031 µg/mL
same,MIC ATB combined with Example,SAU 29213; ATB FOS,<0.125 µg/mL
same,MIC ATB combined with Example,SAU 29213; ATB MEM,<0.031 µg/mL
same,MIC ATB combined with Example,SAU 29213; ATB PIP,<0.031 µg/mL
same,MIC ATB combined with Example compound,SAU 29213; MIC of CIP,<0.031 µg/mL
same,MIC ATB combined with Example compound,SAU 29213; MIC of CLI,<0.0010 µg/mL
same,MIC ATB combined with Example compound,SAU 29213; MIC of CPO,<0.031 µg/mL
same,MIC ATB combined with Example compound,SAU 29213; MIC of DAP,<0.0020 µg/mL
same,MIC ATB combined with Example compound,SAU 29213; MIC of ERY,<0.0020 µg/mL
same,MIC ATB combined with Example compound,SAU 29213; MIC of LZD,<0.0078 µg/mL
same,MIC ATB combined with Example compound,SAU 29213; MIC of RIF,<0.00012 µg/mL
same,MIC ATB combined with Example compound,SAU 29213; MIC of SYN,<0.0020 µg/mL
same,MIC ATB combined with Example compound,SAU 29213; MIC of VAN,<0.0039 µg/mL
same,MIC,"SAU 29213; substance alone, SAU 29213 (MSSA 29213)",8 µg/mL
same,MIC ATB combined with Example,SPN 49619; ATB ATM,>32 µg/mL
same,MIC ATB combined with Example,SPN 49619; ATB FEP,<=0.031 μg/mL
same,MIC ATB combined with Example,SPN 49619; ATB FOS,8 µg/mL
same,MIC ATB combined with Example,SPN 49619; ATB MEM,<=0.031 μg/mL
same,MIC ATB combined with Example,SPN 49619; ATB PIP,0.25 µg/mL
same,MIC ATB combined with Example compound,SPN 49619; MIC of CIP,0.063 µg/mL
same,MIC ATB combined with Example compound,SPN 49619; MIC of CLI,<0.0010 µg/mL
same,MIC ATB combined with Example compound,SPN 49619; MIC of CPO,<=0.031 μg/mL
same,MIC ATB combined with Example compound,SPN 49619; MIC of DAP,0.031 µg/mL
same,MIC ATB combined with Example compound,SPN 49619; MIC of ERY,<0.0020 µg/mL
same,MIC ATB combined with Example compound,SPN 49619; MIC of LZD,0.25 µg/mL
same,MIC ATB combined with Example compound,SPN 49619; MIC of RIF,0.00049 µg/mL
same,MIC ATB combined with Example compound,SPN 49619; MIC of SYN,0.125 µg/mL
same,MIC ATB combined with Example compound,SPN 49619; MIC of VAN,0.016 µg/mL
same,MIC,SPN 49619; substance alone,8 µg/mL
same,MIC ATB combined with Example,KPN BAA-1898; ATB ATM,<0.031 µg/mL
same,MIC ATB combined with Example,KPN BAA-1898; ATB FEP,<0.031 µg/mL
same,MIC ATB combined with Example,KPN BAA-1898; ATB FOS,<0.125 µg/mL
same,MIC ATB combined with Example,KPN BAA-1898; ATB MEM,<0.031 µg/mL
same,MIC ATB combined with Example,KPN BAA-1898; ATB PIP,<0.031 µg/mL
same,MIC ATB combined with Example compound,"KPN BAA-1898; MIC of CIP, compound @8 μg/ml",<0.031 µg/mL
same,MIC,KPN BAA-1898; substance alone,2 µg/mL
same,MIC ATB combined with Example,KPN UFR42; ATB ATM,<0.031 µg/mL
same,MIC ATB combined with Example,KPN UFR42; ATB FEP,<0.031 µg/mL
same,MIC ATB combined with Example,KPN UFR42; ATB FOS,<0.125 µg/mL
same,MIC ATB combined with Example,KPN UFR42; ATB MEM,<0.031 µg/mL
same,MIC ATB combined with Example,KPN UFR42; ATB PIP,<0.031 µg/mL
same,MIC ATB combined with Example compound,KPN UFR42; MIC of CIP,<0.031 µg/mL
same,MIC ATB combined with Example compound,KPN UFR42; MIC of CPO,<0.031 µg/mL
same,MIC,KPN UFR42; substance alone,4 µg/mL
same,MIC ATB combined with Example,KPN 6299; ATB ATM,<0.031 µg/mL
same,MIC ATB combined with Example,KPN 6299; ATB FEP,<0.031 µg/mL
same,MIC ATB combined with Example,KPN 6299; ATB FOS,<0.125 µg/mL
same,MIC ATB combined with Example,KPN 6299; ATB MEM,<0.031 µg/mL
same,MIC ATB combined with Example,KPN 6299; ATB PIP,<0.031 µg/mL
same,MIC ATB combined with Example compound,"KPN 6299; MIC of CIP, compound @8 μg/ml",<0.031 µg/mL
